What all share (type): cell-based
Experiment [1] deals with Mycobacterium smegmatis NCIM 5138. As to the kind of experiment: microbe, parasite or virus in culture. The conditions noted are these: Mycolicibacterium smegmatis, NCIM5138; Mycobacterium smegmatis NCIM 5138, 48 h.
Experiment [2] relates to Aspergillus niger BIONCL 12. Briefly: Antifungal MIC, RPMI-1640, resazurin. The conditions noted are these: Aspergillus niger BIONCL 12, 48 to 72 h at 28° C. (Alamar Blue is a resazurin reagent that responds to reducing activity.)
For experiment [3], the system named is Bacillus subtilis NCIM 2010. Briefly: microbe, parasite or virus in culture. The conditions noted are these: Bacillus subtilis NCIM 2010, 24 h at 37° C.
The test system of experiment [4] is Staphylococcus aureus NCIM 2079. Briefly: microbe, parasite or virus in culture. The conditions noted are these: Staphylococcus aureus NCIM 2079, 24 h at 37° C.
Experiment [5] relates to Candida albicans NCIM 3557. Briefly: Antifungal MIC, RPMI-1640, resazurin. The conditions noted are these: Candida albicans NCIM 3557, 48 to 72 h at 28° C.
The test system of experiment [6] is Escherichia coli NCIM 2065. Briefly: microbe, parasite or virus in culture. The conditions noted are these: Escherichia coli NCIM 2065, 24 h at 37° C.
Experiment [7] deals with Serratia marcescens NCIM 2919. Briefly: microbe, parasite or virus in culture. The conditions noted are these: Serratia marcescens NCIM 2919, 24 h at 37° C.
In experiment [8] the test system is Fusarium verticillioides BIONCL4. Briefly: Antifungal MIC, RPMI-1640, resazurin. The conditions noted are these: Fusarium verticillioides BIONCL4, 48 to 72 h at 28° C.
Experiment [9] relates to Gram-positive and Gram-negative bacteria. As to the kind of experiment: Antibacterial MIC, whole panel of tested strains. The conditions noted are these: span over all tested bacterial strains; read-out: MICs against tested bacterial strains.
For experiment [10], the system named is Pseudomonas desmolyticum NCIM 2112. As to the kind of experiment: microbe, parasite or virus in culture. The conditions noted are these: Pseudomonas desmolyticum NCIM 2112, 24 h at 37° C.
In experiment [11] the test system is Fusarium graminearum MTCC1893. Briefly: microbe, parasite or virus in culture.
The test system of the next experiment is fungal strains tested. As to the kind of experiment: microbe, parasite or virus in culture. The conditions noted are these: Fusarium graminearum, read-out: MIC against the fungal strains tested.
Where [12] appears, read: NCIM3557, read-out: MIC (converted).
Where [13] appears, read: Fusarium graminearum, MTCC1893, Fusarium graminearum MTCC1893, 48 to 72 h at 28° C.

Converted amounts (≈) assume the structure as drawn. Like-named read-outs stand apart in the source and are kept apart here.

`CC(C)(C)c1ccc(O)c(C(C)(C)C)c1` [C-1, 2,4-di-tert-butylphenol]: the MIC in [1] is 3.12 µg/mL (≈ 15.1 µM); in experiment [2] it was 12.50 µg/mL (≈ 60.6 µM); in experiment [2] (BIONCL12, read-out: MIC) it was 12.5 µg/mL (≈ 60.6 µM); in experiment [3] (NCIM2010, read-out: MIC) it was 3.12 µg/mL (≈ 15.1 µM); in [4] (NCIM2079, read-out: MIC) it was 6.25 µg/mL (≈ 30.3 µM); in experiment [5] (setting [12]) it was 12.5 µg/mL (≈ 60.6 µM). For the same compound, the MIC is 3.12 µg/mL (≈ 15.1 µM) in experiment [6] (NCIM2065, read-out: MIC); 1.56 µg/mL (≈ 7.56 µM) in [7] (NCIM2919, read-out: MIC); 6.25 µg/mL (≈ 30.3 µM) in experiment [8] (read-out: MIC (converted)); 1.56 to 25 µg/mL (≈ 7.56 to 121 µM) in [9]; 6.25 µg/mL (≈ 30.3 µM) in [10] (NCIM2112, read-out: MIC); 6.25 µg/mL (≈ 30.3 µM) in experiment [11] (setting [13]).
Consider `CC1=C(O)C(=O)C(O)CO1` (centres unmarked) [C-2, 3,5-dihydroxy-6-methyl-2,3-dihydro-4H-pyran-4-one], for which the MIC was 12.5 µg/mL (≈ 86.7 µM) in experiment [1]; 3.12 µg/mL (≈ 21.6 µM) in experiment [2] (BIONCL12, read-out: MIC); 6.25 µg/mL (≈ 43.4 µM) in experiment [3] (NCIM2010, read-out: MIC); 3.12 to 6.25 µg/mL (≈ 21.6 to 43.4 µM) with fungal strains tested; 3.12 µg/mL (≈ 21.6 µM) in [4] (NCIM2079, read-out: MIC); 3.12 µg/mL (≈ 21.6 µM) in experiment [5] (setting [12]). Besides, the MIC in [6] (NCIM2065, read-out: MIC) was 6.25 µg/mL (≈ 43.4 µM); in experiment [7] (NCIM2919, read-out: MIC), 3.12 µg/mL (≈ 21.6 µM); in [8] (read-out: MIC (converted)), 3.12 µg/mL (≈ 21.6 µM); in experiment [9], 1.56 to 25 µg/mL (≈ 10.8 to 173 µM); in experiment [10] (NCIM2112, read-out: MIC) it was 6.25 µg/mL (≈ 43.4 µM); in [11] (setting [13]) it was 6.25 µg/mL (≈ 43.4 µM).
On to `NC(=O)c1cnccn1` [C-3, Pyrazine-2-carboxamide], for which the MIC in [1] came to 12.5 µg/mL (≈ 102 µM); in experiment [2] it was 25.0 µg/mL (≈ 203 µM); in [2] (BIONCL12, read-out: MIC) it was 25 µg/mL (≈ 203 µM); in experiment [3] it was 25.0 µg/mL (≈ 203 µM); in experiment [3] (NCIM2010, read-out: MIC), 25 µg/mL (≈ 203 µM); in experiment [4] (NCIM2079, read-out: MIC), 25 µg/mL (≈ 203 µM). For the same compound, the MIC is 25.0 µg/mL (≈ 203 µM) in [4]; 12.5 µg/mL (≈ 102 µM) in experiment [5]; 12.5 µg/mL (≈ 102 µM) in experiment [5] (setting [12]); 25.0 µg/mL (≈ 203 µM) in experiment [6]; 25 µg/mL (≈ 203 µM) in experiment [6] (NCIM2065, read-out: MIC); 25 µg/mL (≈ 203 µM) in [7] (NCIM2919, read-out: MIC). In addition, the MIC in experiment [7] was 25.0 µg/mL (≈ 203 µM); in experiment [8], 12.5 µg/mL (≈ 102 µM); in experiment [8] (read-out: MIC (converted)) it was 12.5 µg/mL (≈ 102 µM); in experiment [9] it was 1.56 to 25 µg/mL (≈ 12.7 to 203 µM); in experiment [10] (NCIM2112, read-out: MIC), 25 µg/mL (≈ 203 µM); in [10], 25.0 µg/mL (≈ 203 µM). In addition, the MIC stood at 50.0 µg/mL (≈ 406 µM) in [11] (Fusarium graminearum MTCC1893, 48 to 72 h at 28° C.) and 25 µg/mL (≈ 203 µM) in experiment [11] (setting [13]).
